Patent US6465641B1, “One pot synthesis of 5′-hydroxy phosphorylated nucleoside derivatives, and compounds formed thereby” (Parker Hughes Institute, priority 1999, dated 2002)

Legend:
sperm = settings: read-out: EC50 value in sperm motility assays
HIV = settings: read-out: IC50 value in HIV replication assays

- EC50 (sperm): 2.8 µM
- IC50 (HIV): 0.005 µM
Substance: 5-bromo-6-methoxy-5,6-dihydro-AZT-5′-(p-bromophenyl methoxyalaninyl phosphate)
